Experimental data taken from PubChem BioAssay AID328 (DTP/NCI, 2004).
Several values for one entry are separate records, joined by “and”; a condition that tells them apart may be missing. Identical values can stand only once. Inconclusive results and toxic doses are left out.

System: BDF1 mice, P388 leukemia ip, median survival T/C
Experiment: NCI In Vivo Anticancer Drug Screen. Data for tumor model P388 Leukemia (intraperitoneal) in B6D2F1 (BDF1) mice
Details: endpoint: median survival time, higher = longer survival
Method in brief: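 Antitumour effect was judged in vivo: survival in drug-treated mice, normalised to that of vehicle-dosed controls, gives the reported T/C.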

COC(=O)C[C@](O)(CCCC(C)(C)O)C(=O)O[C@@H]1C(OC)=C[C@]23CCCN2CCc2cc4c(cc2[C@H]13)OCO4
T/C (dose: 0.06 mg/kg/injection, schedule: Q01DX010 (ip), vehicle: saline): 154 % of control
T/C (dose: 0.13 mg/kg/injection, schedule: Q01DX010 (ip), vehicle: saline): 172 % of control
T/C (dose: 0.25 mg/kg/injection, schedule: Q01DX009 (ip), vehicle: acid diluted with saline): 180 % of control
T/C (dose: 0.25 mg/kg/injection, schedule: Q01DX009 (ip), vehicle: water): 233 % of control and 244 % of control
T/C (dose: 0.25 mg/kg/injection, schedule: Q01DX010 (ip), vehicle: saline): 181 % of control
T/C (dose: 0.25 mg/kg/injection, schedule: Q03HX016 (ip), vehicle: acid diluted with saline): 160 % of control
T/C (dose: 0.5 mg/kg/injection, schedule: Q01DX006 (iv), vehicle: acid diluted with saline): 115 % of control
T/C (dose: 0.5 mg/kg/injection, schedule: Q01DX009 (ip), vehicle: acid diluted with saline): 190 % of control
T/C (dose: 0.5 mg/kg/injection, schedule: Q01DX009 (ip), vehicle: saline): 240 % of control and 100 % of control
T/C (dose: 0.5 mg/kg/injection, schedule: Q01DX009 (ip), vehicle: water): 272 % of control and 300 % of control
T/C (dose: 0.5 mg/kg/injection, schedule: Q01DX009 (oral), vehicle: acid diluted with saline): 115 % of control
T/C (dose: 0.5 mg/kg/injection, schedule: Q01DX009 (oral), vehicle: saline): 155 % of control
T/C (dose: 0.5 mg/kg/injection, schedule: Q01DX009 (sc), vehicle: saline): 105 % of control
T/C (dose: 0.5 mg/kg/injection, schedule: Q01DX010 (ip), vehicle: saline): 245 % of control and 215 % of control
T/C (dose: 0.5 mg/kg/injection, schedule: Q03HX016 (ip), vehicle: acid diluted with saline): 180 % of control
T/C (dose: 1.0 mg/kg/injection, schedule: Q01DX006 (iv), vehicle: acid diluted with saline): 160 % of control
T/C (dose: 1.0 mg/kg/injection, schedule: Q01DX009 (ip), vehicle: acid diluted with saline): 225 % of control and 218 % of control
T/C (dose: 1.0 mg/kg/injection, schedule: Q01DX009 (ip), vehicle: saline): 245 % of control and 100 % of control
T/C (dose: 1.0 mg/kg/injection, schedule: Q01DX009 (ip), vehicle: water): 327 % of control and 338 % of control
T/C (dose: 1.0 mg/kg/injection, schedule: Q01DX009 (oral), vehicle: acid diluted with saline): 115 % of control
T/C (dose: 1.0 mg/kg/injection, schedule: Q01DX009 (oral), vehicle: saline): 240 % of control
T/C (dose: 1.0 mg/kg/injection, schedule: Q01DX009 (sc), vehicle: acid diluted with saline): 170 % of control
T/C (dose: 1.0 mg/kg/injection, schedule: Q01DX010 (ip), vehicle: saline): 120 % of control
T/C (dose: 1.0 mg/kg/injection, schedule: Q03HX008 (ip), vehicle: acid diluted with saline): 150 % of control
T/C (dose: 1.0 mg/kg/injection, schedule: Q03HX016 (ip), vehicle: acid diluted with saline): 100 % of control
T/C (dose: 2.0 mg/kg/injection, schedule: Q01DX001 (ip), vehicle: acid diluted with saline): 120 % of control
T/C (dose: 2.0 mg/kg/injection, schedule: Q01DX001 (iv), vehicle: acid diluted with saline): 110 % of control
T/C (dose: 2.0 mg/kg/injection, schedule: Q01DX001 (oral), vehicle: acid diluted with saline): 110 % of control
T/C (dose: 2.0 mg/kg/injection, schedule: Q01DX001 (sc), vehicle: acid diluted with saline): 110 % of control
T/C (dose: 2.0 mg/kg/injection, schedule: Q01DX006 (iv), vehicle: acid diluted with saline): 200 % of control
T/C (dose: 2.0 mg/kg/injection, schedule: Q01DX009 (ip), vehicle: acid diluted with saline): 240 % of control and 254 % of control
T/C (dose: 2.0 mg/kg/injection, schedule: Q01DX009 (ip), vehicle: water): 88 % of control
T/C (dose: 2.0 mg/kg/injection, schedule: Q01DX009 (sc), vehicle: acid diluted with saline): 235 % of control
T/C (dose: 2.0 mg/kg/injection, schedule: Q01DX009 (sc), vehicle: saline): 205 % of control
T/C (dose: 2.0 mg/kg/injection, schedule: Q04DX003 (ip), vehicle: acid diluted with saline): 155 % of control and 168 % of control and 170 % of control
T/C (dose: 2.0 mg/kg/injection, schedule: Q04DX003 (ip), vehicle: saline): 173 % of control
T/C (dose: 3.33 mg/kg/injection, schedule: Q04DX003 (ip), vehicle: acid diluted with saline): 112 % of control
T/C (dose: 4.0 mg/kg/injection, schedule: Q01DX001 (ip), vehicle: acid diluted with saline): 115 % of control
T/C (dose: 4.0 mg/kg/injection, schedule: Q01DX001 (iv), vehicle: acid diluted with saline): 110 % of control
T/C (dose: 4.0 mg/kg/injection, schedule: Q01DX001 (oral), vehicle: acid diluted with saline): 110 % of control
T/C (dose: 4.0 mg/kg/injection, schedule: Q01DX001 (sc), vehicle: acid diluted with saline): 120 % of control
T/C (dose: 4.0 mg/kg/injection, schedule: Q01DX006 (iv), vehicle: acid diluted with saline): 120 % of control
T/C (dose: 4.0 mg/kg/injection, schedule: Q01DX009 (ip), vehicle: acid diluted with saline): 190 % of control
T/C (dose: 4.0 mg/kg/injection, schedule: Q01DX009 (ip), vehicle: saline): 100 % of control
T/C (dose: 4.0 mg/kg/injection, schedule: Q01DX009 (sc), vehicle: saline): 115 % of control
T/C (dose: 4.0 mg/kg/injection, schedule: Q04DX003 (ip), vehicle: acid diluted with saline): 110 % of control
T/C (dose: 8.0 mg/kg/injection, schedule: Q01DX009 (ip), vehicle: saline): 104 % of control
T/C (dose: 62.5 micrograms/kg/injection, schedule: Q01DX009 (ip), vehicle: saline): 154 % of control
T/C (dose: 125.0 micrograms/kg/injection, schedule: Q01DX009 (ip), vehicle: saline): 154 % of control
T/C (dose: 125.0 micrograms/kg/injection, schedule: Q03HX024 (ip), vehicle: acid diluted with saline): 170 % of control
T/C (dose: 250.0 micrograms/kg/injection, schedule: Q01DX009 (ip), vehicle: saline): 163 % of control
T/C (dose: 250.0 micrograms/kg/injection, schedule: Q03HX024 (ip), vehicle: acid diluted with saline): 190 % of control
T/C (dose: 500.0 micrograms/kg/injection, schedule: Q01DX009 (ip), vehicle: saline): 190 % of control
T/C (dose: 500.0 micrograms/kg/injection, schedule: Q03HX024 (ip), vehicle: acid diluted with saline): 215 % of control
T/C (dose: 1000.0 micrograms/kg/injection, schedule: Q01DX009 (ip), vehicle: saline): 213 % of control
